This is an account of results in paper PMC7036753, “Lipidated Analogs of the LL-37-Derived Peptide Fragment KR12—Structural Analysis, Surface-Active Properties and Antimicrobial Activity” (International Journal of Molecular Sciences, 2020).

What is called MIC is the smallest concentration in the dilution series that meets the test's criterion for growth inhibition. Read a high MIC as a need for much substance. Usually IC50 stands for the midpoint of a concentration-inhibition curve. Low readings indicate inhibition by little substance, high ones a need for much substance.

In brackets after ≈: the same amount, converted by molar mass. Peptide text beside a SMILES is read from it. * marks the point of attachment. Myristoyl = CCCCCCCCCCCCCC(=O)*; Lauroyl = CCCCCCCCCCCC(=O)*; Butyryl = CCCC(=O)*

In assay [1] the test system is E. faecium ATCC 700221. It is filed as cell-based, Enterococcus faecium. The conditions noted are these: ATCC 700221, 18 h. The procedure: (§1) Examination of antimicrobial activity of the test compounds was conducted on reference strains of bacteria assigned to ESKAPE group of pathogens: Enterococcus faecium ATCC 700221, Klebsiella pneumoniae ATCC 700603, Acinetobacter baumannii ATCC BAA-1605, Pseudomonas aeruginosa ATCC 9027, Klebsiella aerogenes ATCC 13048 (formerly Enterobacter aerogenes) and reference strains of Staphylococcus aureus, namely: S. aureus ATCC 25923, S. aureus ATCC 6538, S. aureus ATCC 33591 (MRSA), S. aureus ATCC 9144 and S. aureus ATCC 12598. All the strains were stored at −80 °C in Roti®-Store cryo vials (Carl Roth GmbH, Karlsruhe, Germany) and before the tests were transferred into fresh Mueller-Hinton Medium (BioMaxima, Lublin, Poland) and incubated for 24 h at 37 °C. Subsequently, each bacterial inoculum was seeded on Mueller-Hinton Agar plates (BioMaxima) and incubated again for 24 h. The cultures prepared in this way were used in further antimicrobial assays and prepared as described above. The MIC values were determined by the broth microdilution method according to Clinical and Laboratory Standards Institute Protocol. For this purpose, initial inoculums of bacteria (0.5 × 10^5 colony forming unit (CFU)/mL) in Mueller–Hinton Broth were exposed to the ranging concentrations of compounds (0.5–256 µg/mL) and incubated for 18 h at 37 °C. The experiments were conducted on 96-well microtiter plates, with a final volume of 100 µL. Cell densities were adjusted spectrophotometrically (Multiskan™ GO Microplate Spectrophotometer, Thermo Scientific) at 600 nm. The MICs were taken as the lowest drug concentration at which a visible growth of microorganisms was inhibited. All experiments were conducted in triplicate and included positive (growth) and negative (sterility) controls.

The subject of assay [2] is K. pneumoniae ATCC 700603. The format is cell-based, Klebsiella pneumoniae. The conditions noted are these: ATCC 700603, 18 h. The procedure: as §1
In assay [3] the test system is A. baumannii ATCC BAA-1605. It is filed as cell-based, Acinetobacter baumannii. As to conditions: ATCC BAA-1605, 18 h. The procedure: as §1
Assay [4] has as its system P. aeruginosa ATCC 9027. It is filed as cell-based, Pseudomonas aeruginosa. As to conditions: ATCC 9027, 18 h. The procedure: as §1
Assay [5] concerns K. aerogenes ATCC 13048. The format is cell-based, Klebsiella aerogenes. The conditions noted are these: ATCC 13048, 18 h. The procedure:
as §1

In assay [6] the test system is S. aureus ATCC 12598. It is filed as cell-based, Staphylococcus aureus. As to conditions: ATCC 12598, 18 h. The procedure: as §1
Assay [7] has as its system S. aureus ATCC 25923. The format is cell-based, Staphylococcus aureus. As to conditions: ATCC 25923, 18 h. As for the experimental part:
as §1

Assay [8] relates to S. aureus ATCC 33591 (MRSA). It is filed as cell-based, Staphylococcus aureus. As to conditions: ATCC 33591, 18 h. As for the experimental part: as §1
The test system of assay [9] is S. aureus ATCC 6538. It is filed as cell-based, Staphylococcus aureus. The conditions noted are these: ATCC 6538, 18 h. The procedure: as §1
Assay [10] has as its system S. aureus ATCC 9144. It is filed as cell-based, Staphylococcus aureus. As to conditions: ATCC 9144, 18 h. As for the experimental part: as §1
The test system of assay [11] is S. aureus ATCC 12598 biofilm. The format is cell-based, Staphylococcus aureus. The conditions noted are these: ATCC 12598, 24 h. As for the experimental part:
(§2) The MBECs values were determined according to the method reported previously. Briefly, 24-h cultures of S. aureus, namely: S. aureus ATCC 25923, S. aureus ATCC 6538, S. aureus ATCC 33591 (MRSA), S. aureus ATCC 9144 and S. aureus ATCC 12598 were diluted to a concentration of 0.5 × 10^7 CFU/mL and added to the test wells of polystyrene microdilution flat-bottom plates. After 24-h of incubation at 37 °C, the wells were rinsed three times with PBS to remove non-adherent cells. Subsequently, 100 μL of the test compounds over a concentration range 0.5–256 µg/mL were added to each well and incubated again for 24 h at 37 °C. After this period, 20 μL of the resazurin (7-hydroxy-3H-phenoxazin-3-one-10-oxide, 4 mg/mL) solution was added to each well. After 1 h of incubation, the MBECs were read out. The determined values were recorded as the lowest concentration at which the reduction of resazurin (from blue to pink) was lower or equal to 10 ± 0.5% as compared to the positive (100%) and negative (0%) controls. All experiments were performed in triplicate.

Assay [12] deals with S. aureus ATCC 25923 biofilm. It is filed as cell-based, Staphylococcus aureus. The conditions noted are these: ATCC 25923, 24 h. The procedure:
as §2

For assay [13], the system named is S. aureus ATCC 33591 (MRSA) biofilm. It is filed as cell-based, Staphylococcus aureus. As to conditions: ATCC 33591, 24 h. As for the experimental part:
as §2

For assay [14], the system named is S. aureus ATCC 6538 biofilm. It is filed as cell-based, Staphylococcus aureus. As to conditions: ATCC 6538, 24 h. The procedure: as §2
Assay [15] relates to S. aureus ATCC 9144 biofilm. It is filed as cell-based, Staphylococcus aureus. As to conditions: ATCC 9144, 24 h. The procedure:
as §2

The test system of assay [16] is human keratinocytes (HaCaT). It is filed as cell-based. As to conditions: 24 h. As for the experimental part:
The cytotoxicity of test compounds (IC50) was evaluated for human keratinocytes (HaCaT, ATCC) using classic MTT assay on 96-well plates. In this assay, a colorimetric determination of the cell metabolic activity was carried out. Specifically, the color intensity reflects the number of live cells that can be measured spectrophotometrically. […] A day after plating 500 cells per well, a series of concentrations (0.5–500 μg/mL) of the test compounds were added. Dimethyl sulfoxide (DMSO) was used as a control in cells at a final concentration of 1.0% (v/v), which was related to the maximal concentration of the solvent compounds used in the experiment. After 24 h of incubation with test compounds, a medium containing 1 mg/mL of MTT was added up to a final concentration of 0.5 mg/mL and subsequently incubated at 37 °C for 4 h. Then, the medium was aspirated and the formazan product was solubilized with DMSO. The background absorbance at 630 nm was subtracted from that at 570 nm for each well (Epoch, BioTek Instruments, Winooski, VT, USA). Six replicates were conducted for each concentration. All experiments were repeated at least twice and the resulting IC50 values were calculated with a GraFit 7 software (v. 7.0, Erithacus, Berkley, CA, USA).

Assay [17] deals with reference strains of S. aureus. It is filed as cell-based, Staphylococcus aureus. As to conditions: reference strains of, 24 h. The procedure:
as §1, with “For this purpose, initial inoculums of bacteria (0.5 × 10^5 colony forming unit (CFU)/mL) in Mueller–Hinton Broth were exposed to the ranging concentrations of compounds (0.5–256 µg/mL) and incubated for 18 h at 37 °C.” left out

For `CCCC(=O)N[C@@H](CCCCN)C(=O)N[C@@H](CCCNC(=N)N)C(=O)N[C@H](C(=O)N[C@H](C(=O)N[C@@H](CCC(N)=O)C(=O)N[C@@H](CCCNC(=N)N)C(=O)N[C@H](C(=O)N[C@@H](CCCCN)C(=O)N[C@@H](CC(=O)O)C(=O)N[C@@H](Cc1ccccc1)C(=O)N[C@@H](CC(C)C)C(=O)N[C@@H](CCCNC(=N)N)C(N)=O)[C@@H](C)CC)C(C)C)[C@@H](C)CC` [II, C4-KR12-NH2] (Butyryl-KRIVQRIKDFLR-NH2), the MIC was 4 µg/mL (≈ 2.44 µM) in [1]; 128 µg/mL (≈ 78 µM) in [2]; greater than 256 µg/mL in assay [3]; 32 µg/mL (≈ 19.5 µM) in assay [4]; 128 µg/mL (≈ 78 µM) in assay [5]; 64 µg/mL (≈ 39 µM) in assay [6]. In addition, the minimal inhibitory concentration (MIC) in [7] was 128 µg/mL (≈ 78 µM); in assay [8], 128 µg/mL (≈ 78 µM); in assay [9], 32 µg/mL (≈ 19.5 µM); in assay [10], 64 µg/mL (≈ 39 µM). For the same compound, the MBEC came to 128 µg/mL in assay [11]; 256 µg/mL in assay [12]; 128 µg/mL in [13]; 128 µg/mL in [14]; 128 µg/mL in [15]. The same compound yielded an IC50 in [16] of 38.73 µg/mL (≈ 23.6 µM). Moreover, the “GM (geometric mean of the MIC values against S. aureus)” value (shortened to “GM”) in [17] is 73.52 µg/mL.

As for `CCCCCCCCCCCCCC(=O)N[C@@H](CCCCN)C(=O)N[C@@H](CCCNC(=N)N)C(=O)N[C@H](C(=O)N[C@H](C(=O)N[C@@H](CCC(N)=O)C(=O)N[C@@H](CCCNC(=N)N)C(=O)N[C@H](C(=O)N[C@@H](CCCCN)C(=O)N[C@@H](CC(=O)O)C(=O)N[C@@H](Cc1ccccc1)C(=O)N[C@@H](CC(C)C)C(=O)N[C@@H](CCCNC(=N)N)C(N)=O)[C@@H](C)CC)C(C)C)[C@@H](C)CC` [VII, C14-KR12-NH2] (Myristoyl-KRIVQRIKDFLR-NH2), the MIC in assay [1] worked out at 8 µg/mL (≈ 4.49 µM); in assay [2], 64 µg/mL (≈ 35.9 µM); in [3] it was 32 µg/mL (≈ 18 µM); in assay [4] it was 128 µg/mL (≈ 71.9 µM); in [5], 128 µg/mL (≈ 71.9 µM); in assay [6], 128 µg/mL (≈ 71.9 µM). Also, the minimum inhibitory concentration (MIC) was 128 µg/mL (≈ 71.9 µM) in assay [7], 16 µg/mL (≈ 8.98 µM) in [8], 64 µg/mL (≈ 35.9 µM) in assay [9] and 64 µg/mL (≈ 35.9 µM) in assay [10]. The MBEC is on record as 64 µg/mL in [11]; 256 µg/mL in assay [12]; 256 µg/mL in assay [13]; 256 µg/mL in assay [14]; 128 µg/mL in [15]. This compound also registered a half-inhibitory concentration (IC50) in assay [16] of 1.29 µg/mL (≈ 0.724 µM). In addition, the “GM” value in assay [17] worked out at 64.00 µg/mL.

For the compound `CCCCCCCCCCCC(=O)N[C@@H](CCCCN)C(=O)N[C@@H](CCCNC(=N)N)C(=O)N[C@H](C(=O)N[C@H](C(=O)N[C@@H](CCC(N)=O)C(=O)N[C@@H](CCCNC(=N)N)C(=O)N[C@H](C(=O)N[C@@H](CCCCN)C(=O)N[C@@H](CC(=O)O)C(=O)N[C@@H](Cc1ccccc1)C(=O)N[C@@H](CC(C)C)C(=O)N[C@@H](CCCNC(=N)N)C(N)=O)[C@@H](C)CC)C(C)C)[C@@H](C)CC` [VI, C12-KR12-NH2] (Lauroyl-KRIVQRIKDFLR-NH2), the minimal inhibitory concentration (MIC) amounted to 4 µg/mL (≈ 2.28 µM) in [1]; 32 µg/mL (≈ 18.3 µM) in [2]; 16 µg/mL (≈ 9.13 µM) in assay [3]; 32 µg/mL (≈ 18.3 µM) in [4]; 32 µg/mL (≈ 18.3 µM) in assay [5]; 32 µg/mL (≈ 18.3 µM) in assay [6]. For the same compound, the minimum inhibitory concentration (MIC) in [7] is 32 µg/mL (≈ 18.3 µM); in assay [8], 16 µg/mL (≈ 9.13 µM); in assay [9], 32 µg/mL (≈ 18.3 µM); in assay [10] it was 32 µg/mL (≈ 18.3 µM). In addition, the MBEC is 32 µg/mL in [11]; 256 µg/mL in assay [12]; 128 µg/mL in assay [13]; 256 µg/mL in assay [14]; 64 µg/mL in [15]. The IC50 in assay [16] is on record as 7.60 µg/mL (≈ 4.33 µM). Also, the “GM” value in assay [17] was 27.86 µg/mL.
